Experimental data reported in patent US11884627B2, “Compounds and compositions for treating conditions associated with LPA receptor activity” (Lhotse Bio, Inc., priority 2022, dated 2024).
Read-outs that look alike come from different tables or passages of the source.

Target: T1, human LPA1 (Homo sapiens, UniProt Q92633)
T1 construct: expressed in transfected cells; host or cells: CHO-K1
Experiment: In vitro LPA1 calcium flux antagonist assay - Bioduro protocol
Format: cell-based
Conditions: CHO-K1 cells overexpressing human LPA1 and G15a, LPA challenge at EC80
Outline: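 Calcium mobilization read on FLIPR after EC80 LPA was added to compound-pretreated (30 min) CHO-K1 cells co-expressing human LPA1 and G15a. Cells were starved 4 h and dye-loaded with Fluo-8 AM/2.5 mM probenecid in HBSS-Hepes; inhibition normalized between DMSO and LPA-control RFU.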

[1] = calcium mobilization on FLIPR Tetra, read-out: IC50
[2] = Table B3, read-out: Activity (IC50 class)

T1 sequence (Q92633 whole entry): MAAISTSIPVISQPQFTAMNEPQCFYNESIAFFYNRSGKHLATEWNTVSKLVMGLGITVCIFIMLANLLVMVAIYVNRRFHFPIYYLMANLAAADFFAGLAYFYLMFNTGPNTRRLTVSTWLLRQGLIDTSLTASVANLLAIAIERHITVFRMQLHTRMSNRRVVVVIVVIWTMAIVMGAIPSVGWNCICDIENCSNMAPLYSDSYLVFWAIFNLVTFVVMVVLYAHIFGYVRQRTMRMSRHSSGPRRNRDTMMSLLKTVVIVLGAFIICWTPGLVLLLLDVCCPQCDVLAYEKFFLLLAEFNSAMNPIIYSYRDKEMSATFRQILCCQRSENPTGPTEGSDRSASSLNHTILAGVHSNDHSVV

| Compound | IC50 [1] [nM] | IC50 [2] [nM] |
| --- | --- | --- |
| CCOc1cccc(-c2ccc(NC3(C(=O)O)CCC3)cc2COC2CC2)c1C(F)F [Compound 333] | 10.3 | < 100 |
| CCCOCc1cc(NC2(C(=O)O)CCOCC2)ccc1-c1cc(OC)c(C)c(OC)c1F [Compound 334] | 45.2 | < 100 |
| CCCCOCc1cc(NC2(C(=O)O)CCOCC2)ccc1-c1cc(OC)c(C)c(OC)c1F [Compound 335] | 5.56 | < 100 |
| CCOc1nccc(-c2ccc(NC3(C(=O)O)CCOCC3)cc2COC2CC2)c1C(F)F [Compound 338] | 17.2 | < 100 |
| CCc1nccc(-c2ccc(NC3(C(=O)O)CCOCC3)cc2COC2CC2)c1F [Compound 339] | 85.3 | < 100 |
| COc1cc(-c2ccc(OC3(C(=O)O)CCOCC3)cc2COC2CC2)c(F)c(OC)c1C [Compound 343] | 1130 | > 1000 |
| COc1cc(OC2CC2)c(F)c(-c2ccc(OC3(C(=O)O)CCOCC3)cc2COC2CC2)c1 [Compound 344] | 106 | 100 to 1000 |
| CCOCc1cc(NC2(C(=O)O)CCOCC2)ccc1-c1cc(OC)c(C)c(OC)c1F [Compound 350] | 4320 | > 1000 |
| COc1cc(-c2ccc(NC3(C(=O)O)CCOCC3)cc2COCCC(C)C)c(F)c(OC)c1C [Compound 351] | 4.63 | < 100 |
| COc1cc(-c2ccc(NC3(C(=O)O)CCOCC3)cc2COC(C)C)c(F)c(OC)c1C [Compound 352] | 75 | < 100 |
| COc1cc(-c2ccc(OC3(C(=O)O)CCOCC3)cc2COC2CC2)c(C)c(OC)c1C [Compound 354] | 35.5 | < 100 |
| CCOc1cccc(-c2ccc(NC3(C(=O)O)CCOCC3)cc2COC2CC2)c1C(F)(F)F [Compound 358] | 5.37 | < 100 |
| CCOc1cccc(-c2ccc(NC3(C(=O)O)CC3)cc2COC2CC2)c1C(F)F [Compound 359] | 49.8 | < 100 |
| COc1cc(-c2ccc(OC3(C(=O)O)CCOCC3)cc2COC2CC2)c(Cl)c(OC)c1C [Compound 365] | 18.7 | < 100 |
| CCOc1c(C)ccc(-c2ccc(OC3(C(=O)O)CCOCC3)cc2COC2CC2)c1C [Compound 369] | 44.8 | < 100 |
| CCOc1cccc(-c2ccc(OC3(C(=O)O)CCOCC3)cc2COC2CC2)c1C(F)F [Compound 371] | 22.3 | < 100 |
| Cc1c(OC2CC2)cccc1-c1ccc(OC2(C(=O)O)CCOCC2)cc1COC1CC1 [Compound 372] | 57.4 | < 100 |
| CCOc1cccc(-c2ccc(NC3(C(=O)O)CCOCC3)cc2CCC2CC2)c1F [Compound 373] | 1.2 | < 100 |

| Compound | IC50 [1] [nM] | IC50 [2] [nM] |
| --- | --- | --- |
| CCOc1cccc(-c2ccc(OC3(C(=O)O)CCOCC3)cc2COC2CC2)c1Cl [Compound 374] | 14.6 | < 100 |
| CCOc1cccc(-c2ccc(OC3(C(=O)O)CCC3)cc2COC2CC2)c1C(F)F [Compound 375] | 24.3 | < 100 |
| CCOc1cccc(-c2ccc(NC3(C(=O)O)CCCC3)cc2COC2CC2)c1C(F)F [Compound 376] | 1.03 | < 100 |
| CCOc1cccc(-c2ccc(OC3(C(=O)O)CCC3)cc2COC2CC2)c1 [Compound 377] | > 10000 | > 1000 |
| COc1cc(OC2CC2)cc(-c2ccc(OC3(C(=O)O)CCOCC3)cc2COC2CCCC2)c1 [Compound 378] | 834 | 100 to 1000 |
| CCOc1cc(OC)cc(-c2ccc(C3(C(=O)O)CC3)cc2COC2CC2)c1F [Compound 382] | > 10000 | > 1000 |
| CCCCOCc1cc(NC2(C(=O)O)CCOCC2)ccc1-c1cc(OC)cc(OCC)c1F [Compound 390] | 0.658 | < 100 |
| CCOc1cc(OC)cc(-c2ccc(C3(C(=O)O)CC3)cc2COC2CCCC2)c1F [Compound 391] | 471 | 100 to 1000 |
| Cc1ccc(-c2ccc(NC3(C(=O)O)CCOCC3)cc2COC2CC2)c(F)c1OC1CC1 [Compound 392] | 9.44 | < 100 |
| CCCc1nccc(-c2ccc(NC3(C(=O)O)CCOCC3)cc2COC2CC2)c1F [Compound 393] | > 10000 | > 1000 |
| CCOc1c(C)ccc(-c2ccc(NC3(C(=O)O)CCOCC3)cc2COCC(C)C)c1C [Compound 394] | 97.6 | < 100 |
| CCOc1cc(OC)cc(-c2ccc(NC3(C(=O)O)CCOCC3)cc2COCC(C)C)c1F [Compound 395] | 7.94 | < 100 |
| CCOc1c(C)c(OC)cc(-c2ccc(NC3(C(=O)O)CCOCC3)cc2COCC(C)C)c1F [Compound 396] | 27.5 | < 100 |
| COc1cc(-c2ccc(NC3(C(=O)O)CCOCC3)cc2COCC(C)C)c(C)c(OC)c1C [Compound 397] | 73 | < 100 |
| COc1cc(OC)c(Cl)c(-c2ccc(NC3(C(=O)O)CCOCC3)cc2COCC(C)C)c1 [Compound 398] | 104 | 100 to 1000 |
| CCCCOCc1cc(NC2(C(=O)O)CCOCC2)ccc1-c1ccc(C)c(OCC)c1C [Compound 399] | 6.41 | < 100 |
| CCCCOCc1cc(NC2(C(=O)O)CCOCC2)ccc1-c1cc(OC)c(C)c(OCC)c1F [Compound 400] | 5.37 | < 100 |
| CCCCOCc1cc(NC2(C(=O)O)CCOCC2)ccc1-c1cc(OC)c(C)c(OC)c1C [Compound 401] | 5.71 | < 100 |

More lines, now with the values ahead:

| IC50 [1] [nM] | IC50 [2] [nM] | Compound |
| --- | --- | --- |
| 18.8 | < 100 | COc1cc(-c2ccc(NC3(C(=O)O)CCOCC3)cc2COCC(C)C)c(F)c(OC)c1C [Compound 336] |
| 315 | 100 to 1000 | CCOc1cc(OC)cc(-c2ccc(NC3(C(=O)O)CC3)cc2COC2CC2)c1F [Compound 337] |
| 26.1 | < 100 | COc1cc(-c2ccc(NC3(C(=O)O)CCOCC3)cc2COC2CCCC2)cc(OC2CC2)c1C [Compound 340] |
| 214 | 100 to 1000 | COc1cc(-c2ccc(NC3(C(=O)O)CCOCC3)cc2COC2CC2)cc(OC2CC2)c1C [Compound 341] |
| 19.7 | < 100 | COc1cc(-c2ccc(NC3(C(=O)O)CCOCC3)cc2COC2CC2)c(F)c(OC)c1C#N [Compound 342] |
| 7.24 | < 100 | COc1cc(OC2CC2)c(F)c(-c2ccc(NC3(C(=O)O)CCC(F)(F)CC3)cc2COC2CC2)c1 [Compound 346] |
| 23.5 | < 100 | COc1cc(-c2ccc(NC3(C(=O)O)CCC(F)(F)CC3)cc2COC2CC2)c(F)c(OC)c1C [Compound 347] |
| 69.5 | < 100 | COc1cc(-c2ccc(NC3(C(=O)O)CCC(F)(F)CC3)cc2COC2CC2)cc(OC)c1C [Compound 348] |
| 14.2 | < 100 | COc1cc(-c2ccc(NC3(C(=O)O)CCC(F)(F)CC3)cc2COC2CCCC2)cc(OC)c1C [Compound 349] |
| 8.39 | < 100 | COc1cc(-c2ccc(NC3(C(=O)O)CCOCC3)cc2COCC2CCC2)c(F)c(OC)c1C [Compound 353] |
| 30.3 | < 100 | CCOc1cc(OC)cc(-c2ccc(NC3(C(=O)O)CCCCC3)cc2COC2CC2)c1F [Compound 357] |
| 75.5 | < 100 | CCOc1cccc(-c2ccc(NC3(C(=O)O)CC3)cc2COC2CC2)c1C [Compound 360] |
| 75.6 | < 100 | CCOc1c(C)c(OC)cc(-c2ccc(NC3(C(=O)O)CC3)cc2COC2CC2)c1F [Compound 361] |
| 356 | 100 to 1000 | COc1cc(-c2ccc(NC3(C(=O)O)CCC3)cc2COC2CC2)c(F)c(OC)c1C [Compound 362] |
| 4850 | > 1000 | CCOc1cc(OC)cc(-c2ccc(NC3(C(=O)O)CCOCC3)cc2COC2CCCC2)n1 [Compound 363] |
| 82.9 | < 100 | COc1cc(-c2ccc(NC3(C(=O)O)CCOCC3)cc2COCC2CC2)c(F)c(OC)c1C [Compound 364] |
| 55 | < 100 | COc1cc(-c2ccc(NC3(C(=O)O)CC(F)(F)C3)cc2COC2CC2)c(F)c(OC)c1C [Compound 366] |
| 33.2 | < 100 | CCOc1cc(OC)cc(-c2ccc(NC3(C(=O)O)CC(F)(F)C3)cc2COC2CC2)c1F [Compound 367] |
| 40.7 | < 100 | CCOc1c(C)ccc(-c2ccc(NC3(C(=O)O)CC3)cc2COC2CC2)c1C [Compound 368] |
| 67.3 | < 100 | CCOc1cc(-c2ccc(OC3(C(=O)O)CCOCC3)cc2COC2CCCC2)cc(OC)c1C [Compound 379] |
| 17.5 | < 100 | CCOc1c(C)ccc(-c2ccc(NC3(C(=O)O)CCOCC3)cc2COC2CC2)c1F [Compound 381] |
| 0.847 | < 100 | CCOc1cccc(-c2ccc(NC3(C(=O)O)CCC(F)(F)CC3)cc2COC2CC2)c1C [Compound 383] |
| 0.803 | < 100 | CCOc1cccc(-c2ccc(NC3(C(=O)O)CCC(F)(F)CC3)cc2COC2CC2)c1C(F)F [Compound 384] |
| 0.633 | < 100 | CCOc1cccc(-c2ccc(NC3(C(=O)O)CCC(F)(F)CC3)cc2COC2CC2)c1Cl [Compound 385] |
| 3.84 | < 100 | O=C(O)C1(Nc2ccc(-c3cccc(OC4CC4)c3Cl)c(COC3CC3)c2)CCC(F)(F)CC1 [Compound 386] |
| 4.39 | < 100 | Cc1c(OC2CC2)cccc1-c1ccc(NC2(C(=O)O)CCC(F)(F)CC2)cc1COC1CC1 [Compound 387] |
| 6.2 | < 100 | CCOc1cc(OC)cc(-c2ccc(NC3(C(=O)O)CCC(F)(F)CC3)cc2COC2CC2)c1F [Compound 388] |
| 0.772 | < 100 | O=C(O)C1(Nc2ccc(-c3cccc(OC4CC4)c3C(F)F)c(COC3CC3)c2)CCC(F)(F)CC1 [Compound 389] |
